# Square brackets hold non-standard residues; d marks the D form. Peptide text beside a SMILES is read from it. * marks the point of attachment. X3 = CC(C)[C@H](/C=C(\F)[C@H](C)N)C(=O)*; Dip = N[C@H](C(=O)O)C(c1ccccc1)c1ccccc1; Abu(4,4-F2) = N[C@@H](CC(F)F)C(=O)O; PhLac = O=C(O)[C@@H](O)Cc1ccccc1; Cha = N[C@@H](CC1CCCCC1)C(=O)O; Abu = CC[C@H](N)C(=O)O
# How the values were obtained:
# in vitro = details: plasma
# [1] = target: T1, 3-oxo-5-alpha-steroid 4-dehydrogenase 1 (Homo sapiens, UniProt P18405)
# T1 sequence (P18405 whole entry): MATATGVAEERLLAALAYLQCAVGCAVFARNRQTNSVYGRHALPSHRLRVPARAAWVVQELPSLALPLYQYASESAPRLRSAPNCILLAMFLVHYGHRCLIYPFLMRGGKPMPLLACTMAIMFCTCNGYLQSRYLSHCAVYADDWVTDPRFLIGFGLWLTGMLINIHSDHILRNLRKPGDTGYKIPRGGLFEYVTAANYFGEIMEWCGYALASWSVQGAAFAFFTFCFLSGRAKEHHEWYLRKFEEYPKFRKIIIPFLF
# [2] = target: T1, 3-oxo-5-alpha-steroid 4-dehydrogenase 1; remark: listed apart in the source
# [3] = target: T2, 3-oxo-5-alpha-steroid 4-dehydrogenase 1 (Rattus norvegicus, UniProt P24008)
# T2 sequence (P24008 whole entry): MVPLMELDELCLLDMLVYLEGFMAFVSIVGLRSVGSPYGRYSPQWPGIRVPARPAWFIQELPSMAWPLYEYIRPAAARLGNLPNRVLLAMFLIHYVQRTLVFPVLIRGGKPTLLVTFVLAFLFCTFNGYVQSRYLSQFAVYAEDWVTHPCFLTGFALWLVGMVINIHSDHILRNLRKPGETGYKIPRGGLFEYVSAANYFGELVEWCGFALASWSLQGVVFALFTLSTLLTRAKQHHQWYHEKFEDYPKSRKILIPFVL
# [4] = target: T3, 3-oxo-5-alpha-steroid 4-dehydrogenase 2 (Rattus norvegicus, UniProt P31214)
# T3 sequence (P31214 whole entry): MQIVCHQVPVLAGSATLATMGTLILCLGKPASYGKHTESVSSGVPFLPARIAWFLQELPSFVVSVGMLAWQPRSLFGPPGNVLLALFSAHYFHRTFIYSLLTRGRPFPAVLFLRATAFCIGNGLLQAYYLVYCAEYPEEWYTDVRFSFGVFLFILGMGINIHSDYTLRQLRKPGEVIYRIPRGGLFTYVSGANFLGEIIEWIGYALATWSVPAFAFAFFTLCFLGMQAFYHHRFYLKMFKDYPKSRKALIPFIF
# Carbonic anhydrase 2 = Carbonic anhydrase 2 (Bos taurus, UniProt P00921)
# Chain of Carbonic anhydrase 2 (P00921 whole entry): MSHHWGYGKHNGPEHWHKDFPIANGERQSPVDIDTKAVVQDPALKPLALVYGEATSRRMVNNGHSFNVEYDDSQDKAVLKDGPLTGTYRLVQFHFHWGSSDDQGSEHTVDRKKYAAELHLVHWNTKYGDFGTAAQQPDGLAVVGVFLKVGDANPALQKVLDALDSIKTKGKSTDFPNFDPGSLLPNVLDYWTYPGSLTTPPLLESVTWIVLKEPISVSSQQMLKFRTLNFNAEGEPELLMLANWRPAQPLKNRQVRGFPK
# physchem [5] = assay: physchem
# [6] = target: Trypanothione reductase (Trypanosoma cruzi) (UniProt P28593)
# Chain of Trypanothione reductase (Trypanosoma cruzi) (P28593 whole entry, looked up): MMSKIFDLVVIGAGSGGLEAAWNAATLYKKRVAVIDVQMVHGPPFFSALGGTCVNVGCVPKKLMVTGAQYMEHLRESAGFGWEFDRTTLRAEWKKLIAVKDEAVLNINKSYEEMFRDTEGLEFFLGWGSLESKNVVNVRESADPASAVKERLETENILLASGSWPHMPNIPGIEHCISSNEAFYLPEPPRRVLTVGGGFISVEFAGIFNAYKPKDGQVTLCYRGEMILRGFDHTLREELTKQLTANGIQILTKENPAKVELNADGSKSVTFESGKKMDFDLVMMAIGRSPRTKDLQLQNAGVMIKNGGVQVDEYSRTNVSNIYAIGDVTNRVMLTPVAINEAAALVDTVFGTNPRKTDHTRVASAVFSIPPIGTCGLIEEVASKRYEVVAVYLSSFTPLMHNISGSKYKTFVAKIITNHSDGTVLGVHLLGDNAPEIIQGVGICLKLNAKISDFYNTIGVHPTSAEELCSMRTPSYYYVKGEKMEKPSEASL
# T47D = assay: cells; assay type: functional, cell-based; details: Homo sapiens
# [7] = target: Delta-type opioid receptor (Homo sapiens, UniProt P41143)
# Chain of Delta-type opioid receptor (P41143 whole entry): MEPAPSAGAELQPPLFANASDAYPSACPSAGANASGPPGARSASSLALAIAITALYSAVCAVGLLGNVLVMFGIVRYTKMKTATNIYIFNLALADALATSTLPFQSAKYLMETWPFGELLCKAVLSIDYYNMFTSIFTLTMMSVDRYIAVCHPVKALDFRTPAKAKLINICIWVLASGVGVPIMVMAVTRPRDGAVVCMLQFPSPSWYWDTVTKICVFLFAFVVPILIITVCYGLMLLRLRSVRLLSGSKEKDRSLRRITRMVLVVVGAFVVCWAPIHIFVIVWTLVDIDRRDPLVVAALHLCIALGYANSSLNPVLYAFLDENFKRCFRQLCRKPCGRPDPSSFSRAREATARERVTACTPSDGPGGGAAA
# physchem [8] = details: buffer, pH 7.4
# NS3 protease = NS3 protease (Hepacivirus C, UniProt C1KIQ2); parameters: species or system Hepacivirus hominis
# Chain of NS3 protease (C1KIQ2 whole entry): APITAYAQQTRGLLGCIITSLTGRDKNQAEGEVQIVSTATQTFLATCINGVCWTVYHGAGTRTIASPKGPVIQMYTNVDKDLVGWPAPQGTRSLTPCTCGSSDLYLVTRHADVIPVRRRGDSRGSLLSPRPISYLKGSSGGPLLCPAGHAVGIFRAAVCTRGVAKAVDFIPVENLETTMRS
# [9] = target: T4, 3-oxo-5-alpha-steroid 4-dehydrogenase 2 (Homo sapiens, UniProt P31213); assay type: cell-based, HEK293
# T4 sequence (P31213 whole entry): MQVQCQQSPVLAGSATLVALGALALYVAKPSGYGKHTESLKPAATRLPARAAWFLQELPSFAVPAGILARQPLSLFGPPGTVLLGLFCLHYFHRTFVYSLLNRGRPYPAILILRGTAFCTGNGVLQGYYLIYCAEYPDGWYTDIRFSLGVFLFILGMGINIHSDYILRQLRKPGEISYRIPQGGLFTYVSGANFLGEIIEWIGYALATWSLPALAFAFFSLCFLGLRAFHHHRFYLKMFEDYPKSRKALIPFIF
# [10] = target: T1, 3-oxo-5-alpha-steroid 4-dehydrogenase 1; assay type: cell-based, HEK293
# [11] = target: Peptidyl-prolyl cis-trans isomerase FKBP1A (Homo sapiens, UniProt P62942); assay: biochemical; assay type: cell-based
# Chain of Peptidyl-prolyl cis-trans isomerase FKBP1A (P62942 whole entry): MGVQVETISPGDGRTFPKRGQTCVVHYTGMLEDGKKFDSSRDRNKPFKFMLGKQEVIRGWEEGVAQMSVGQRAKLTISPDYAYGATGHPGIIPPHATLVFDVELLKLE
# [12] = target: T4, 3-oxo-5-alpha-steroid 4-dehydrogenase 2
# Steryl-sulfatase [13] = target: T5, Steryl-sulfatase (Homo sapiens, UniProt P08842)
# T5 sequence (P08842 whole entry): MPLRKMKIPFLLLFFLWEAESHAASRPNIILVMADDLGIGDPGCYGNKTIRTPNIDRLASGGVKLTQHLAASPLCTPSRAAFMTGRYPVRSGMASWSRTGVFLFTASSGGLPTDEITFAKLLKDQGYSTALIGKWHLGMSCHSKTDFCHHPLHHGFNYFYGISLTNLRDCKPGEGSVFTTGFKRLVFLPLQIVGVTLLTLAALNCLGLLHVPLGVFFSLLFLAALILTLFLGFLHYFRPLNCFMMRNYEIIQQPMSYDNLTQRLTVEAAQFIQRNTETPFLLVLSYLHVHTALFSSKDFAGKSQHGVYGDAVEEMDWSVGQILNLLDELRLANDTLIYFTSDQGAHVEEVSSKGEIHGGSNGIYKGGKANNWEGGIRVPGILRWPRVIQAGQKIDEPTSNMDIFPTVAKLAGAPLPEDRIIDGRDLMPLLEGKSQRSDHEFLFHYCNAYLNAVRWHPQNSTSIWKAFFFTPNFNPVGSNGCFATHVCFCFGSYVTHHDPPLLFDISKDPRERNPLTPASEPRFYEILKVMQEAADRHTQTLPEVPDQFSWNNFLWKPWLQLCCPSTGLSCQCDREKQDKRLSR
# Steryl-sulfatase [14] = target: T5, Steryl-sulfatase; remark: listed apart in the source
# [15] = target: T6, Parathyroid hormone/parathyroid hormone-related peptide receptor (Homo sapiens, UniProt Q03431)
# T6 sequence (Q03431 whole entry): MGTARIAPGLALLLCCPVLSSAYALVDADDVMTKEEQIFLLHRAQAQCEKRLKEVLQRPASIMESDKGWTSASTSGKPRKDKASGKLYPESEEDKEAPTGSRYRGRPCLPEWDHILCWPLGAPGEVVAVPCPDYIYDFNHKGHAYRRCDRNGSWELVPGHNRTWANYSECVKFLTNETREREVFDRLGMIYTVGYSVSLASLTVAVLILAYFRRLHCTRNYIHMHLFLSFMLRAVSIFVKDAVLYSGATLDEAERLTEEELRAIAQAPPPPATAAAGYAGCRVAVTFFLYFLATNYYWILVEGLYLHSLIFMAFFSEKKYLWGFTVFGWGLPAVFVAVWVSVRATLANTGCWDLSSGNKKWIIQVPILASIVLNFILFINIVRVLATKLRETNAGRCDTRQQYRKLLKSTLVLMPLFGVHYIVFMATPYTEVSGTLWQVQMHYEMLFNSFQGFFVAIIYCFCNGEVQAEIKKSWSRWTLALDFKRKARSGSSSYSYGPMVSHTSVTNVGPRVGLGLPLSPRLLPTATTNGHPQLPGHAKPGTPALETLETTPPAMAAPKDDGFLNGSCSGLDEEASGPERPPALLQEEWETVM
# [16] = target: T6, Parathyroid hormone/parathyroid hormone-related peptide receptor; assay: biochemical
smiles,measurement,setting,value
Cc1cn2c(C(=O)NCc3ccc(C(F)(F)F)cc3)c(C)nc2s1,fraction unbound,in vitro,0.009
C[C@]12C=CC(=O)N[C@@H]1CC[C@@H]1[C@@H]2CC[C@]2(C)[C@@H](C(=O)NC(c3ccccc3)(C(F)(F)F)C(F)(F)F)CC[C@@H]12,IC50,[1],3.9 nM
same,IC50,[2],20 nM
same,IC50,[3],34 nM
same,IC50,[4],34 nM
NS(=O)(=O)Cc1ccccc1 [PHENYLMETHANESULFONAMIDE],IC50,Carbonic anhydrase 2,630 nM
same,pKa,physchem [5],10.5
C[N+](C)(CCCNc1cc(F)ccc1Nc1ccc(C(F)(F)F)cc1)Cc1ccc(Cl)c(Cl)c1,Kic,[6],24 µM
O=C1Nc2cc(S(F)(F)(F)(F)F)ccc2/C1=C/c1ccc[nH]1,EC50,T47D,350 nM
Cc1cn2c(C(=O)NCc3ccc(S(F)(F)(F)(F)F)cc3)c(C)nc2s1,fraction unbound,in vitro,0.003
CC(C)C[C@H](NC(=O)[C@@H](/C=C(\F)CNC(=O)CNC(=O)[C@@H](N)Cc1ccc(O)cc1)Cc1ccccc1)C(=O)O,Ki,[7],43 nM
same,logD,physchem [8],-0.11
CC(C)C[C@H](NC(=O)[C@H](Cc1ccccc1)NC(=S)CNC(=O)CNC(=O)[C@@H](N)Cc1ccc(O)cc1)C(=O)O,Ki,[7],47 nM
NS(=O)(=O)C(F)c1ccccc1 (configuration not stated),IC50,Carbonic anhydrase 2,220 nM
same,pKa,physchem [5],8.8
CC(C)C[C@H](NC(=O)[C@@H](/C=C/CNC(=O)CNC(=O)[C@@H](N)Cc1ccc(O)cc1)Cc1ccccc1)C(=O)O,Ki,[7],587 nM
same,logD,physchem [8],-0.07
CC(=O)N[C@@H](CC(=O)O)C(=O)N[C@@H](CCC(=O)O)C(=O)N[C@H](C(=O)N[C@@H](CCC(=O)O)C(=O)N[C@@H](CC1CCCCC1)C(=O)N[C@@H](CS)C(=O)O)C(c1ccccc1)c1ccccc1 (Ac-DE[Dip]E[Cha]C-OH),Ki,NS3 protease,40 nM
O=C1Nc2ccc(S(F)(F)(F)(F)F)cc2/C1=C/c1ccc[nH]1,EC50,T47D,490 nM
CC(C)C[C@H](NC(=O)[C@H](Cc1ccccc1)OC(=O)CNC(=O)CNC(=O)[C@@H](N)Cc1ccc(O)cc1)C(=O)O (H-YGG[PhLac]L-OH),Ki,[7],34 nM
CC(C)(C)NC(=O)[C@H]1CC[C@H]2[C@@H]3CC=C4C=C(F)CC[C@]4(C)[C@H]3CC[C@]12C,IC50,[9],480 nM
same,IC50,[10],1300 nM
CC(NC(=O)[C@H]1CC[C@H]2[C@@H]3CC[C@H]4NC(=O)C=C[C@]4(C)[C@H]3CC[C@]12C)(c1ccccc1)C(F)(F)F (some centres not stated),IC50,[1],36 nM
same,IC50,[2],16 nM
same,IC50,[3],15 nM
same,IC50,[4],15 nM
COc1cc(C(=O)C(=O)N2CCC[C@H]2C(=O)OCCCc2cccnc2)cc(OC)c1OC,Ki,[11],4000 nM
C[N+](C)(CCCNc1cc(F)ccc1Nc1ccc(S(F)(F)(F)(F)F)cc1)Cc1ccc(Cl)c(Cl)c1,Kic,[6],28 µM
"CC(=O)N[C@@H](CC(=O)O)C(=O)N[C@@H](CCC(=O)O)C(=O)N[C@H](C(=O)N[C@@H](CCC(=O)O)C(=O)N[C@@H](CC1CCCCC1)C(=O)N[C@@H](CC(F)F)C(=O)O)C(c1ccccc1)c1ccccc1 (Ac-DE[Dip]E[Cha][Abu(4,4-F2)]-OH)",Ki,NS3 protease,30 nM
C[C@]12C=CC(=O)N[C@@H]1CC[C@@H]1[C@@H]2CC[C@]2(C)[C@@H](C(=O)Nc3cc(C(F)(F)F)ccc3C(F)(F)F)CC[C@@H]12 [DUTASTERIDE],IC50,[1],4 nM
same,IC50,[12],< 0.1 nM
C[C@]12CC[C@@H]3c4ccc(C(F)(F)S(=O)(=O)O)cc4CC[C@H]3[C@@H]1CCC2=O,Ki,Steryl-sulfatase [13],73000 nM
same,Ki,Steryl-sulfatase [14],147000 nM
C[C@]12CC[C@@H]3c4ccc(C(F)(F)S(N)(=O)=O)cc4CC[C@H]3[C@@H]1CCC2=O,Ki,Steryl-sulfatase [13],82000 nM
same,Ki,Steryl-sulfatase [14],28000 nM
CC(C)(C)c1ccc(Nc2ccc(F)cc2NCCC[N+](C)(C)Cc2ccc(Cl)c(Cl)c2)cc1,Kic,[6],84 µM
C[C@]12CC[C@@H]3c4ccc(CS(N)(=O)=O)cc4CC[C@H]3[C@@H]1CCC2=O,Ki,Steryl-sulfatase [13],350000 nM
NS(=O)(=O)C(F)(F)c1ccccc1 [PHENYLDIFLUOROMETHANESULFONAMIDE],IC50,Carbonic anhydrase 2,58 nM
same,pKa,physchem [5],7.7
CC[C@H](NC(=O)[C@H](CC1CCCCC1)NC(=O)[C@H](CCC(=O)O)NC(=O)[C@@H](NC(=O)[C@H](CCC(=O)O)NC(=O)[C@H](CC(=O)O)NC(C)=O)C(c1ccccc1)c1ccccc1)C(=O)O (Ac-DE[Dip]E[Cha][Abu]-OH),Ki,NS3 protease,700 nM
CC[C@H](C)[C@H](NC(=O)[C@H](CCC(=O)O)NC(=O)[C@H](CO)NC(=O)[C@@H](/C=C(\F)[C@H](C)N)C(C)C)C(=O)N[C@@H](CCC(N)=O)C(=O)N[C@@H](CC(C)C)C(=O)N[C@@H](CCSC)C(=O)N[C@@H](Cc1c[nH]cn1)C(=O)N[C@@H](CC(N)=O)C(=O)N[C@@H](CC(C)C)C(=O)NCC(=O)N[C@@H](CCCCN)C(=O)N[C@@H](Cc1c[nH]cn1)C(=O)N[C@@H](CC(C)C)C(=O)N[C@@H](CC(N)=O)C(=O)N[C@@H](CO)C(=O)N[C@@H](CCSC)C(=O)N[C@@H](CCC(=O)O)C(=O)N[C@@H](CCCN=C(N)N)C(=O)N[C@H](C(=O)N[C@@H](CCC(=O)O)C(=O)N[C@@H](Cc1c[nH]c2ccccc12)C(=O)N[C@@H](CC(C)C)C(=O)N[C@@H](CCCN=C(N)N)C(=O)N[C@@H](CCCCN)C(=O)N[C@@H](CCCCN)C(=O)N[C@@H](CC(C)C)C(=O)N[C@@H](CCC(N)=O)C(=O)N[C@@H](CC(=O)O)C(=O)N[C@H](C(=O)N[C@@H](Cc1c[nH]cn1)C(=O)N[C@@H](CC(N)=O)C(=O)N[C@@H](Cc1ccccc1)C(=O)N[C@H](C(=O)N[C@@H](C)C(N)=O)C(C)C)C(C)C)C(C)C (X3-SEIQLMHNLGKHLNSMERVEWLRKKLQDVHNFVA-NH2),EC50,[15],4.4 nM
same,Kd,[16],1.26 nM

# Source: ChEMBL document CHEMBL4371002 (J Med Chem, 2018)
